Test system: C57BL/6 mice
Assay: animal or person
Type: in vivo
Conditions: Mus musculus, sc, 0.5 h, s.c. administration, 30 min, 55° C. water, read-out: ED50 (mg/kg) at 30 min on C57BL/6 mice in Warm-water Tail-flick Test

| Structure (SMILES) | ED50 |
| --- | --- |
| CC(=O)Nc1ccc(CN2CCC(CCc3ccccn3)(c3ccccn3)CC2)cc1 [Compound 16, N-(4-((4-(pyridin-2-yl)-4-(2-(pyridin-2-yl)ethyl)piperidin-1-yl)methyl)phenyl)acetamide] | > 10 mg/kg |
| CC(=O)N(C)c1ccc(CN2CCC(CCc3ccccc3)(c3ccccn3)CC2)cc1 [Compound 17, N-methyl-N-(4-((4-phenethyl-4-(pyridin-2-yl)piperidin-1-yl)methyl)phenyl)acetamide] | > 10 mg/kg |
| CC(C)C(=O)Nc1ccc(CN2CCC(CCc3ccccc3)(c3ccccn3)CC2)cc1 [Compound 18, N-(4-((4-phenethyl-4-(pyridin-2-yl)piperidin-1-yl)methyl)phenyl)iso-butyramide] | > 10 mg/kg |
| CCC(=O)Nc1ccc(CN2CCC(CCc3ccccc3)(c3ccccn3)CC2)cc1 [Compound 19, N-(4-((4-phenethyl-4-(pyridin-2-yl)piperidin-1-yl)methyl)phenyl)pro-pionamide] | > 10 mg/kg |
| CCCCC(=O)Nc1ccc(CN2CCC(CCc3ccccc3)(c3ccccn3)CC2)cc1 [Compound 20, N-(4-((4-phenethyl-4-(pyridin-2-yl)piperidin-1-yl)methyl)phenyl)pen-tanamide] | > 10 mg/kg |
| CC(C)CCC(=O)Nc1ccc(CN2CCC(CCc3ccccc3)(c3ccccn3)CC2)cc1 [Compound 21, 4-methyl-N-(4-((4-phenethyl-4-(pyridin-2-yl)piperidin-1-yl)methyl)phenyl)pen-tanamide] | > 10 mg/kg |
| CCOC(=O)Nc1ccc(CN2CCC(CCc3ccccc3)(c3ccccn3)CC2)cc1 [Compound 22, ethyl 4-((4-phenethyl-4-(pyridin-2-yl)piperidin-1-yl)methyl)phenylcarbamate] | > 10 mg/kg |
| NC(=O)Nc1ccc(CN2CCC(CCc3ccccc3)(c3ccccn3)CC2)cc1 [Compound 23, 1-(4-((4-phenethyl-4-(pyridin-2-yl)piperidin-1-yl)methyl)phenyl)urea] | > 10 mg/kg |
| O=C(Nc1ccc(CN2CCC(CCc3ccccc3)(c3ccccn3)CC2)cc1)c1ccccc1 [Compound 24, N-(4-((4-phenethyl-4-(pyridin-2-yl)piperidin-1-yl)methyl)phenyl)benz-amide] | > 10 mg/kg |
| CNc1ccc(CN2CCC(CCc3ccccc3)(c3ccccn3)CC2)cc1 [Compound 25, N-methyl-4-((4-phenethyl-4-(pyridin-2-yl)piperidin-1-yl)methyl)aniline] | > 10 mg/kg |
| c1ccc(CCC2(c3ccccn3)CCN(Cc3ccccc3)CC2)cc1 [Compound 26, 2-(1-benzyl-4-phenethylpiperidin-4-yl)pyridine] | > 10 mg/kg |
| COC(=O)C1(CCc2ccccc2)CN(Cc2ccc(NC(C)=O)cc2)C1.Cl [Compound 27, methyl 1-(4-acetamidobenzyl)-3-phenethylazetidine-3-carboxylate HCl] | > 10 mg/kg |
| COC(=O)C1(CCc2ccccc2)CCN(Cc2ccc(NC(C)=O)cc2)C1 (stereo not shown) [Compound 28, methyl 1-(4-acetamidobenzyl)-3-phenethylpyrrolidine-3-carboxylate] | < 10 mg/kg |
| COC(=O)C1(CCc2ccccc2)CCCN(Cc2ccc(NC(C)=O)cc2)C1 (stereo not shown) [Compound 29, methyl 1-(4-acetamidobenzyl)-3-phenethylpiperidine-3-carboxylate] | > 10 mg/kg |
| CC(=O)Nc1ccc(CN2CCC(CCc3ccccc3)(c3ccccn3)C2)cc1 (stereo not shown) [Compound 30, N-(4-((3-phenethyl-3-(pyridin-2-yl)pyrrolidin-1-yl)methyl)phenyl)acetamide] | > 10 mg/kg |
| CC(=O)Nc1ccc(NN2CCC(CCc3ccccc3)(c3ccccn3)CC2)cc1 [Compound 31, N-(4-(4-phenethyl-4-(pyridin-2-yl)piperidin-1-ylamino)phenyl)acetamide] | > 10 mg/kg |

| Structure (SMILES) | ED50 |
| --- | --- |
| CC(=O)Nc1ccc(CN2CCCC(CCc3ccccc3)(c3ccccn3)C2)cc1 (stereo not shown) [Compound 32, N-(4-((3-phenethyl-3-(pyridin-2-yl)piperidin-1-yl)methyl)phenyl)acetamide] | > 10 mg/kg |
| CC(=O)Nc1ccc(CN2CCC(/C=C/c3ccccc3)(c3ccccn3)CC2)cc1 [Compound 33, (E)-N-(4-((4-(pyridin-2-yl)-4-styrylpiperidin-1-yl)methyl)phenyl)acetamide] | > 10 mg/kg |
| CC(=O)Nc1ccc(CN2CCC(CCc3ccccc3)(c3nccn3C)CC2)cc1 [Compound 34, N-(4-((4-(1-methyl-1H-imidazol-2-yl)-4-phenethylpiperidin-1-yl)methyl)phenyl)acetamide] | > 10 mg/kg |
| CC(=O)NCCCCN1CCC(CCc2ccccc2)(c2ccccn2)CC1 [Compound 35, N-(4-(4-phenethyl-4-(pyridin-2-yl)piperidin-1-yl)butyl)acetamide] | > 10 mg/kg |
| CC(=O)NCCN1CCC(CCc2ccccc2)(c2ccccn2)CC1 [Compound 36, N-(2-(4-phenethyl-4-(pyridin-2-yl)piperidin-1-yl)ethyl)acetamide] | > 10 mg/kg |
| CC(=O)Nc1ccc(CN2CCC(CCc3ccccc3)(c3cccc(F)n3)CC2)cc1 [Compound 37, N-(4-((4-(6-fluoropyridin-2-yl)-4-phenethylpiperidin-1-yl)methyl)phenyl)acetamide] | > 10 mg/kg |
| COc1ccc(C2(CCc3ccccc3)CCN(Cc3ccc(NC(C)=O)cc3)CC2)nc1 [Compound 38, N-(4-((4-(5-methoxypyridin-2-yl)-4-phenethylpiperidin-1-yl)methyl)phenyl)acetamide] | > 10 mg/kg |
| CC(=O)Nc1ccc(CN2CCC(CCc3ccccc3)(Cc3ccccn3)CC2)cc1 [Compound 39, N-(4-((4-phenethyl-4-(pyridin-2-ylmethyl)piperidin-1-yl)methyl)phenyl)acetamide] | > 10 mg/kg |
| CC(=O)Nc1ccc(CN2CCC(/C=C/c3ccccc3)(c3ccncc3)CC2)cc1 [Compound 40, (E)-N-(4-((4-(pyridin-4-yl)-4-styrylpiperidin-1-yl)methyl)phenyl)acetamide] | > 10 mg/kg |
| Nc1ccc(CN2CCC(CCc3ccccc3)(c3ccccn3)CC2)cc1 [Compound 41, 4-((4-phenethyl-4-(pyridin-2-yl)piperidin-1-yl)methyl)aniline] | > 10 mg/kg |
| CC(=O)Nc1ccc(CN2CCC(C(=O)c3ccccc3)(c3ccccn3)CC2)cc1 [Compound 42, N-(4-((4-benzoyl-4-(pyridin-2-yl)piperidin-1-yl)methyl)phenyl)acetamide] | > 10 mg/kg |
| CC(=O)N(C)c1ccc(CN2CCC(CCc3ccccc3)(c3ncc[nH]3)CC2)cc1 [Compound 43, N-(4-((4-(1H-imidazol-2-yl)-4-phenethylpiperidin-1-yl)methyl)phenyl)-N-methylacetamide] | > 10 mg/kg |
| CC(=O)Nc1ccc(CN2CCC(/C=C/c3ccccn3)(c3ccccn3)CC2)cc1 [Compound 44, (E)-N-(4-((4-(pyridin-2-yl)-4-(2-(pyridin-2-yl)vinyl)piperidin-1-yl)methyl)phenyl)acetamide] | > 10 mg/kg |
| CC(=O)Nc1ccc(CN2CCC(c3ccccn3)(C(O)c3ccccc3)CC2)cc1 (stereo not shown) [Compound 45, N-(4-((4-(hydroxy(phenyl)methyl)-4-(pyridin-2-yl)piperidin-1-yl)methyl)phenyl)acetamide] | > 10 mg/kg |
| CC(=O)Nc1ccc(CN2CCC(/C=C/Cc3ccccc3)(c3ccccn3)CC2)cc1 [Compound 46, (E)-N-(4-((4-(3-phenylprop-1-enyl)-4-(pyridin-2-yl)piperidin-1-yl)methyl)phenyl)acetamide] | > 10 mg/kg |

From patent publication US11584765B2 (priority 2017, dated 2023)
